Experimental findings from patent US20230091336A1, “CANNABINOID COMPOSITIONS” (priority 2020, published 2023) are described below.

Marks after values point to notes of the source that are not given here.

The test system of experiment [1] is SOCE in HEK-293 human embryonic kidney cells. In words: SOCE Fura-2 bioassay in HEK293 cells. Type of experiment: cell-based. The following applies: for IC50: Homo sapiens, HEK293, read-out: IC50 SOCE, purified cannabinoids, HEK-293, Table 5.
Experiment [2] relates to SOCE in Luva human mast cells. Put plainly: SOCE Fura-2 bioassay in Luva cells. The note with it: Homo sapiens, Mast cell, read-out: IC50 SOCE, purified cannabinoids, Luva; Table 5.
Description: (§1) Briefly, SOCE inhibition experiments were performed as described in Example 8, using each of the hemp extracts listed below and in Tables 6A and 6B at six concentrations each in each of the five cell types listed above to obtain dose response curves, as shown in FIGS. 11A-11SS. […] All data are averages of three independent runs±SEM. […] Hemp extracts used in FIGS. 11A-11SS are: Sour Space Candy (SSC), Hawaiian Haze (HH), Special Sauce (SS), Suver Haze (SH), White CBG (WCBG), Elektra (ELEK), Cherry Wine (CW), Lifter (LIF), Grape Soda (GS).
Experiment [3] deals with SOCE in THP-1 human monocytes. Put plainly: SOCE Fura-2 bioassay in THP-1 cells. The note with it: for IC50: Homo sapiens, THP-1, read-out: IC50 SOCE, purified cannabinoids.
The test system of experiment [4] is cisplatin-induced nephritis mice. In words: Cisplatin-induced kidney damage mouse model. The format is in vivo. The note with it: for body-weight loss in cisplatin-induced nephritis mice / kidney weight left / kidney weight right / urine / water intake / body weight: 10 mg/kg i.p.; for body-weight loss in cisplatin-induced nephritis mice: FIG. 25; for creatinine and BUN levels, treatment group vs vehicle group: cisplatin model, first statement of b267; for kidney weight left / kidney weight right / urine / water intake / body weight: cisplatin-induced mice at day 3; for body weight: cisplatin 16 mg/kg, n = 4-5; for kidney weight normalized to body weight / magnesium regulation (serum and urine magnesium) vs cisplatin vehicle group: day 3; for kidney weight normalized to body weight: FIG. 26; for magnesium regulation (serum and urine magnesium) vs cisplatin vehicle group: FIGS. 27A-27B; for kidney function as determined by blood urea nitrogen (BUN): day 3 serum, FIG. 28; for amount of PARP-1 protein in kidney (Western blot): vs cis(+) vehicle, FIG. 30B. The method, then: CBGA and/or CBD was injected intraperitoneally (i.p) 2 hours into C57BL/6 male mice (8 wks weighing 23-30 g) before cisplatin injection according to dosage schemes outlined below, and cisplatin-induced kidney damage was compared to normal kidneys. Sham treatment without cisplatin cis(−) was used as a negative control and cisplatin injection cis(+) without cannabinoid extract treatment was used as a positive vehicle control. Mice in group 1 (“vehicle”) received treatment with cisplatin (16 mg/kg body weight, lmg/mL in 0.90% NaCl, i.p) following intraperitoneal injection of vehicle control solution (5 mL/kg body weight) comprising 5% ethanol and 5% Tween80 in 0.9% NaCl. Mice in group 2 (“CBGA”) received treatment with cisplatin (16 mg/kg body weight, 1 mg/mL in 0.9% NaCl, i.p) following injection of CBGA (10 mg/kg body weight) 2 mg/mL in 5% ethanol, 5% Tween80 and 0.9% NaCl Mice in group 3 (“CBD”) received treatment with cisplatin (16 mg/kg body weight, 1 mg/mL in 0.9% NaCl, i.p) following intraperitoneal injection of CBD (10 mg/kg body weight) 2 mg/mL in 5% ethanol, 5% Tween80 and 0.9% NaCl. Mice in group 4 (“CBGA+CBD”) received treatment with cisplatin (16 mg/kg body weight, 1 mg/mL in 0.9% NaCl, i.p) following intraperitoneal injection of CBGA (10 mg/kg body weight)+CBD (10 mg/kg body weight) 2 mg/mL each in 5% ethanol, 5% Tween80 and 0.9% NaCl. Mice in group 5 (“cis(−)”) received sham injections comprising 0.9% NaCl (16 mL/kg body weight) following intraperitoneal injection of vehicle control solution (5 mL/kg body weight) 5% ethanol, 5% Tween80 and 0.9% NaCl.
Mice were euthanized at Day 3 following cisplatin injection, and kidneys were harvested and stored for processing and analysis.
Blood and urine were collected and analyzed to check kidney function. Blood was collected following euthanization, and urine was collected for 24 hrs before euthanasia in metabolic cages. […] Creatinine levels and BUN or urea value were measured from blood serum and urine samples to evaluate the kidney function. […] FIG. 29A-29B show measured creatinine levels in cisplatin-induced nephrotic mice at day 3. Urine was collected using a metabolic cage for 24 hours before sacrifice. Creatinine was assessed by an assay kit (n=4-5). Creatinine concentration in serum (FIG. 29A) and creatinine in urine (FIG. 29B) were maintained in cannabinoid-treated mice. *p<0.05 vs. cis(+) vehicle treatment group.
PARP-1 in cisplatin- and cannabinoid-treated kidney samples was evaluated by Western blot quantification. PARP activity increases to repair DNA damage, while it induces apoptosis when the cells have severe damage and can not be repaired in cisplatin-induced inflammatory kidneys. […] (FIG. 30A) PARP-1 in kidney tissue was evaluated by quantification of Western blot results, wherein α-tubulin was used as an internal control to normalize PARP-1 band quantification. […] PARP-1 was reduced in mice treated with cisplatin and cannabinoids, relative to mice treated with cisplatin and “vehicle” solution (FIG. 30B). Densitometric analysis was performed from the result of western blotting and presented as a bar graph (n=4-5). […] The rightmost bar represents the sham treatment (“cis(−)”), wherein mice received vehicle injections instead of both cisplatin and cannabinoid extracts as a negative control. **p<0.01 vs. cis(+) vehicle treatment group. CBGA reduced the amount of PARP-1 protein detected in cisplatin-induced nephritis mice. […]
Background: A western blot detects proteins with antibodies after separation by electrophoresis.

The test system of the next experiment is SOCE in Jurkat T cells. Put plainly: SOCE Fura-2 bioassay in Jurkat cells. The format is cell-based, human. The following applies: for effect on SOCE Ca^2+ signals, pure compounds: 10 μM, 1 μM thapsigargin, FIG. 7A, 7C; for IC50: Homo sapiens, read-out: IC50 SOCE, purified cannabinoids, Jurkat, Table 5.
The test system of experiment [5] is SOCE in RBL-2H3 rat mast cells. Put plainly: SOCE Fura-2 bioassay in RBL-2H3 cells. The following applies: Rattus norvegicus, RBL-2H3, read-out: IC50 SOCE, purified cannabinoids, RBL-2H3; Table 5.
Description: as §1
Experiment [6] has as its system SOCE in U937 human monocytes. In words: SOCE Fura-2 bioassay in U937 cells. The following applies: Homo sapiens, U-937, read-out: IC50 SOCE, purified cannabinoids, U937; Table 5.
Description: as §1

As usually defined, the IC50 is the concentration needed to halve the response being measured. In the case of `C=C(C)[C@@H]1CCC(C)=C[C@H]1c1c(O)cc(CCCCC)cc1O` [CBD, (1′R,2′R)-5′-methyl-4-penlyl-2′-(prop-1-en-2-yl)-1′,2′,3′,4′-tetrahydro-[1,1′-biphenyl]-2,6-diol], the IC50 in experiment [1] was more than 50 µM. Further, the IC50 in experiment [2] was found to be 2.53 µM. For the same compound, the IC50 in experiment [3] was more than 50 µM. For the same compound, the “combinatory effect when paired with 2.2 μM CBGA” value in experiment [3] (THP-1, 10 μM cannabinoid + 2.2 μM CBGA, FIG. 10Z) is reported as “sub-additive”. Also, in experiment [4], the “body-weight loss in cisplatin-induced nephritis mice” value is recorded as “didn't affect”; the “creatinine and BUN levels, treatment group vs vehicle group” value was “did not change”; the kidney weight left is recorded as 121 ± 5.0** mg; the kidney weight right was 132 ± 6.8 mg. Besides, in experiment [4], the urine came to 1.042 ± 0.131 mL, the water intake is 1.79 ± 0.37** mL, the body weight was 20.23 ± 0.82* g and the “kidney weight normalized to body weight” value is given as “No significant difference”. In experiment [4], the “magnesium regulation (serum and urine magnesium) vs cisplatin vehicle group” value is on record as “protected magnesium regulation”; the “kidney function as determined by blood urea nitrogen (BUN)” value is reported as “maintained kidney function”; the “amount of PARP-1 protein in kidney (Western blot)” value was “reduced”. Besides, in the experiment with SOCE in Jurkat T cells, the “effect on SOCE Ca^2+ signals, pure compounds” value was “low to no effects” and the IC50 came to 7.42 µM. Further, the “combinatory effect on SOCE inhibition when paired with CBGA (isobolographic analysis)” value in the experiment on SOCE in Jurkat T cells (pairs expected to inhibit 50%, FIGS. 10A-10T) is listed as “Simple additive”. Moreover, in experiment [5], the IC50 is more than 50 µM. The IC50 in experiment [6] is more than 50 µM.

For the compound `CCCCCc1cc(O)c(C/C=C(\C)CCC=C(C)C)c(O)c1C(=O)O` [CBGA, (E)-3-(3,7-dimethylocta-2,6-dien-1-yl)-2,4-dihydroxy-6-pentylbenzoic acid], in experiment [1] (10 μM, HEK293 (FIG. 8) vs immune cells), the “inhibitory effect in immune cells compared with non-immune HEK293 cells” value is “more potent”. The IC50 in experiment [1] turned out to be 3.6 µM. For the same compound, in experiment [2], the IC50 was determined as 0.27 µM. In addition, the IC50 in experiment [3] worked out at 2.21 µM. Also, in experiment [4], the “body-weight loss in cisplatin-induced nephritis mice” value is reported as “recovered”; the “creatinine and BUN levels, treatment group vs vehicle group” value is given as “did not change”; the kidney weight left is listed as 128 ± 8.2** mg; the kidney weight right came out at 139 ± 10.8 mg. For the same compound, in experiment [4], the urine is recorded as 1.162 ± 0.128 mL, the water intake is given as 2.50 ± 0.50* mL, the body weight is 20.85 ± 1.29 g and the “kidney weight normalized to body weight” value is “No significant difference”. Also, in experiment [4], the “magnesium regulation (serum and urine magnesium) vs cisplatin vehicle group” value was “maintained magnesium regulation”; the “kidney function as determined by blood urea nitrogen (BUN)” value was “maintained kidney function”; the “amount of PARP-1 protein in kidney (Western blot)” value is given as “reduced”. Besides, the “mRNA expression of inflammatory markers (TNF-α, IL-6, Cxcl10, ICAM-1, MCP-1, CRP, ET-1) in kidney” value in experiment [4] (qRT-PCR, cis(+)-induced increase, FIGS. 31A-31G) is on record as “significantly reduced”. Further, in the experiment with SOCE in Jurkat T cells, the “effect on SOCE Ca^2+ signals, pure compounds” value was “fully block the Ca^2+ signals” and the IC50 is 0.53 µM. Further, the IC50 in experiment [5] was 5.72 µM. The IC50 in experiment [6] is 2.23 µM.
